Values after ≈ are worked out from the molar mass of the structure shown. “Also recorded” adds a separate entry of the source.
How the values were obtained:
Type in all cases: physicochemical
[1] = Hygroscopicity, moisture adsorption/desorption test; conditions: for hygroscopicity: moisture adsorption/desorption test, FIG. 8; for mass change in moisture adsorption/desorption test: relative humidity of 95%, 25° C.
Protocol: The moisture adsorption/desorption test was carried out according to the following conditions.
Approximately 10 to 15 mg of the sample was filled in a dedicated quartz holder, and the weight of each sample at each humidity was continuously measured and recorded under the following conditions.

[2] = Stability test, 40° C./75% RH, analogous substances by HPLC
Protocol: (§1) The amount of analogous substances in the sample solution was measured by HPLC analysis. The handling of the device including data processing was in accordance with the manual provided with the device. (i.e., Prominence-i). About 2 mg of the exemplary sample of the present invention was dissolve in 4 mL of mobile phase A/mobile phase B mixture (17:3), and the resulting mixture was used as sample solution. • Column: CAPCELL PAK ADME manufactured by Shiseido (4.6×150 mm, 3 μm) • UV detection: 220 nm • Column temperature: 40° C. • Column flow rate: 1.0 mL/min • Mobile phase: A; 5 mM phosphate buffer, pH 6.2/Acetonitrile (4:1) • B: acetonitrile • Injection volume: 5 μL • Sample cooler temperature: 5° C. • Collection time: 40 minutes
(§2) The solid stability of the exemplary sample of the present invention and the free form obtained above was tested after the sample was stored at 40° C./75% RH (closed and open condition) for 2 weeks or 4 weeks. Open condition means that the lid of the glass bottle was removed and covered with Kimwipe. • Measurement points: 2 weeks and 4 weeks • Storage amount: about 50 to 60 mg • Storage container: brown glass bottle

[3] = Solid stability test, 40° C./75% RH, 70° C., 80° C., by HPLC
Protocol: as §2, with “(open condition), 70° C. (closed)” for “(closed”, “80° C. (closed) after” for “open condition) for”, “Kimwipe, 70° C. and 80° C. (closed).” for “Kimwipe.”, “30” for “50 to 60”
as §1, with “6.5/Acetonitrile” for “6.2/Acetonitrile”

[4] = Charging property (adhesion to spatula or glass bottle); conditions: adhesion to a spatula or a glass bottle
[5] = Solubility test, 37° C., 2 hours; conditions: for Solubility: 2 hours
Protocol: About 15 mg of the exemplary sample of the present invention was added to 1 mL of each solvent and was swelled at 37° C. for 2 hours under light resistant condition. After centrifugation, each supernatant was filtered, and 0.7 mL of a mixture of water and acetonitrile (1:1) was added to 0.1 ml of the filtrate.
Following of mobile phase: Control the gradient by mixing the mobile phase A and B as directed in the following table below • Flow rate: 1.0 mL per minutes • Time span of measurement: For 12 minutes after injection

[6] = Optical purity stability by chiral HPLC; conditions: 40° C./75% RH (closed and open condition), 24 hours
Protocol: The optical purity was also measured by the following HPLC condition • Detector: UV at 240 nm • Column: […] IE (4.6×250 mm, 5 μm)/Daicel corp. • Column temperature: 40° C. • Mobile phase: n-hexane/ethanol/ethanolamine/acetic acid (65:35:0.5:0.2) • Flow rate: 1.0 mL/min • Injection: 5 μL • Sample temperature: 5° C. • Time span of measurement: 40 min
Compound—RR, RS,SS: 0.05%
The optical purity was measured also with added 0.2% optical isomer.
The solid stability of the exemplary sample of the present invention and the free form obtained
above was tested before and after the sample was stored at 40° C./75% RH (closed and open condition) for 24 hours.

Compound | mass change in moisture adsorption/desorption test [1] | Chemical Purity (%) ([2]; 40° C./75% RH (Closed), 2 wks) | Total amount of analogous substances (%) ([2]; 40° C./75% RH (Closed), 2 wks) | Chemical Purity (%) ([2]; 40° C./75% RH (Closed), 4 wks) | Total amount of analogous substances (%) ([2]; 40° C./75% RH (Closed), 4 wks) | Chemical Purity (%) ([2]; 40° C./75% RH (Open), 2 wks) | Total amount of analogous substances (%) ([2]; 40° C./75% RH (Open), 2 wks) | Chemical Purity (%) ([2]; 40° C./75% RH (Open), 4 wks) | Total amount of analogous substances (%) ([2]; 40° C./75% RH (Open), 4 wks) | Chemical Purity (%) ([2]; Initial) | Total amount of analogous substances (%) ([2]; Initial) | Chemical Purity (%) ([3]; 40° C. 75% RH (Open), 4wks) | Total amount of analogous substances (%) ([3]; 40° C. 75% RH (Open), 4wks) | Chemical Purity (%) ([3]; 70° C. (Closed), 2 wks) | Total amount of analogous substances (%) ([3]; 70° C. (Closed), 2 wks) | Chemical Purity (%) ([3]; 70° C. (Closed), 4 wks) | Total amount of analogous substances (%) ([3]; 70° C. (Closed), 4 wks) | Chemical Purity (%) ([3]; 80° C. (Closed), 2 wks) | Total amount of analogous substances (%) ([3]; 80° C. (Closed), 2 wks) | Chemical Purity (%) ([3]; 80° C. (Closed), 4 wks) | further results
Cc1ccc(F)c([C@@H](C)[C@H](NS(=O)(=O)c2ccc(Cl)cc2C(N)=O)c2n[nH]c(=O)o2)c1C [Exemplary Sample, 5-chloro-2-(N-((1S,2R)-2-(6-fluoro-2,3-dimethylphenyl)-1-(5-oxo-4,5-dihydro-1,3,4-oxadiazol-2-yl)propyl)sulfamoyl)benzamide] | about 0.1% | 98.67 | 1.33 | 98.62 | 1.38 | 98.67 | 1.33 | 98.60 | 1.40 | 98.67 | 1.33 | 99.69 | 0.31 | 99.67 | 0.33 | 99.68 | 0.32 | 99.66 | 0.34 | 99.66 | hygroscopicity [1]: almost no hygroscopicity; Total amount of analogous substances (%) ([3]; 80° C. (Closed), 4 wks): 0.34%; Chemical Purity (%) ([3]; Initial): 99.69%; Total amount of analogous substances (%) ([3]; Initial): 0.31%; charging property [4]: weak charging property; also recorded: low charging property; Solubility ([5]; 0.5% HPMC, 37° C.): 130 µg/mL (≈ 269 µM); Solubility ([5]; Acetate buffer (50 mM, pH 4.0), 37° C.): 260 µg/mL (≈ 538 µM); Solubility ([5]; Second fluid for dissolution test, pH 6.8, 37° C.): 610 µg/mL (≈ 1260 µM); change on XRD pattern ([5]; after 2 hr solubility study): No significant change; change in the optical purity [6]: No significant change
Cc1ccc(F)c([C@@H](C)[C@H](NS(=O)(=O)c2ccc(Cl)cc2C(N)=O)c2n[nH]c(=O)o2)c1C [Comparative Example, 5-chloro-2-(N-((1S,2R)-2-(6-fluoro-2,3-dimethylphenyl)-1-(5-oxo-4,5-dihydro-1,3,4-oxadiazol-2-yl)propyl)sulfamoyl)benzamide] | about 3.8% | 98.42 | 1.58 | 98.16 | 1.84 | 98.35 | 1.65 | 98.14 | 1.86 | 98.49 | 1.51 | 97.97 | 2.03 | 97.31 | 2.69 | 96.39 | 3.61 | 95.90 | 4.10 | 92.92 | hygroscopicity ([1]; listed as free form): had hygroscopicity; Total amount of analogous substances (%) ([3]; 80° C. (Closed), 4 wks): 7.08%; Chemical Purity (%) ([3]; Initial): 98.33%; Total amount of analogous substances (%) ([3]; Initial): 1.67%; charging property [4]: high charging property; charging property ([4]; listed as free form): high charging property; change in the optical purity [6]: No significant change
